This note sets out measurements from patent US9572813B2, “Antiviral agent” (SHIONOGI & CO., LTD., priority 2001, dated 2017).

Counter-ions that a name gives are not always drawn.

Usually melting point stands for the temperature of the solid-liquid transition. In turn, `COC(=O)c1cc(OCc2ccc(F)cc2)c2c(=O)c(O)c(-c3ncnn3C)oc2c1` yielded a melting point of 253 to 255 °C. The compound `CC(C)N1CC(c2ncc(Oc3ccc(F)cc3)cn2)=C(O)C1=O` came in with a melting point of 165 to 166 °C.

`O=c1c(O)c(-c2ncn(Cc3ccc(F)cc3)n2)oc2ccccc12`: the melting point lay within 260 to 262 °C. `CC(C)N1CC(c2cnc(Oc3ccc(F)cc3)cn2)=C(O)C1=O` yielded a melting point of 227 to 229 °C. The result for `CN1CC(c2cnc(Oc3ccccc3)cn2)=C(O)C1=O` reads 233 to 235 °C. For `CC(C)N1CC(c2ncc(OCc3ccc(F)cc3)cn2)=C(O)C1=O`, the melting point lay within 219 to 221 °C.

On to `CC(C)N1CC(C(=O)c2cnn(Cc3ccc(F)cc3)c2)=C(O)C1=O`, for which the melting point fell in the range of 129.5 to 131 °C. For `CCN1CC(C(=O)c2oc(S(C)(=O)=O)cc2Cc2ccc(F)cc2)=C(O)C1=O` the value was 154 to 157 °C; for `CC(C)N1CC(c2cnc(Cc3ccc(F)cc3)cn2)=C(O)C1=O`, 207 to 209 °C. For `CN1CC(C(=O)c2ccc(Cc3ccc(F)cc3)[nH]2)=C(O)C1=O` the value was 221 to 223 °C; for `COc1cc(F)ccc1Cc1ccc(C(=O)C2=C(O)C(=O)N(C(C)C)C2)o1`, 112 to 113 °C. As to `COCCNC(=O)c1cc(=O)c(O)c(C(=O)c2ccc(Cc3ccc(F)cc3)o2)o1`, the melting point lay within 177 to 179 °C.

Regarding `CC(C)N1CC(C(=O)c2c[nH]c(Cc3ccc(F)cc3)n2)=C(O)C1=O`, the melting point was determined as 220 °C.

`COc1cc(Cc2ccc(C(=O)C3=C(O)C(=O)N(C(C)C)C3)o2)ccc1F` returned a melting point of 160 to 161 °C. The result for `CN1CC(C(=O)c2oc(Cc3ccc(F)cc3)cc2Cc2ccc(F)cc2)=C(O)C1=O` reads 157 to 160 °C. As to `CC(C)N1CC(c2cc(OCc3ccccc3)ncn2)=C(O)C1=O`, the melting point is 177 to 178 °C. Compound `CN1CC(C(=O)c2oc(C(C)(C)C)cc2Cc2ccc(F)cc2)=C(O)C1=O` yielded a melting point of 179 to 181 °C. In the case of `O=c1c(O)c(-c2ncc(Oc3ccccc3)cn2)oc2ccccc12`, the melting point is 212 °C.

For `CC(C)N1CC(c2ncc(Cc3ccc(F)cc3)s2)=C(O)C1=O`, the melting point lay in the range of 212 to 214 °C. `CN1CC(C(=O)c2ccoc2Cc2ccc(F)cc2)=C(O)C1=O` registered a melting point of 171 to 172 °C. For `CN1CC(C(=O)c2oc(C3CCCCC3)cc2Cc2ccc(F)cc2)=C(O)C1=O` the value was 175 to 176 °C; for `O=C(c1ccc(Cc2ccc(F)cc2)o1)c1occ(Br)c(=O)c1O`, 191 to 192 °C. In the case of `O=C(C1=C(O)C(=O)N(C2CCCC2)C1)c1ccc(Cc2ccc(F)cc2)o1`, the melting point is 157 to 159 °C. The compound `COc1cc(Cc2ccc(C(=O)C3=C(O)C(=O)N(C)C3)o2)ccc1F` had a melting point of 164 to 166 °C.

`COC(=O)c1cc(=O)c(O)c(C(=O)c2ccc(Cc3ccc(F)cc3)o2)o1`: the melting point is 174 to 176 °C. The result for `O=C(c1ccc(Cc2ccc(F)cc2)o1)c1oc2ccccc2c(=O)c1O` reads 226 to 227 °C; that for `CN1CC(C(=O)c2ncoc2Cc2ccc(F)cc2)=C(O)C1=O` (as salt: salt), 257 °C; that for `CC(C)c1ccccc1COc1cc(C2=C(O)C(=O)N(C)C2)ncn1`, 240 to 241 °C. The compound `CC(C)Oc1cc(F)ccc1Cc1ccc(C(=O)C2=C(O)C(=O)N(C(C)C)C2)o1` had a melting point of 98 to 100 °C. The result for `CN1CC(c2ncc(CCc3ccc(F)cc3)cn2)=C(O)C1=O` reads 158 to 160 °C.

The compound `CN1CC(C(=O)c2ncc(Cc3ccc(F)cc3)s2)=C(O)C1=O` registered a melting point of 230 to 231 °C. The result for `CC(C)N1CC(c2ncc(Cc3ccc(F)cc3)cn2)=C(O)C1=O` reads 155 to 157 °C. The compound `CC(C)N1CC(C(=O)c2cnc(Cc3ccc(F)cc3)o2)=C(O)C1=O` yielded a melting point of 174 to 178 °C. The result for `CC(C)N1CC(c2cc(CCc3ccccc3)cnn2)=C(O)C1=O` reads 182 to 184 °C; that for `Cc1nc(=O)c(O)c(-c2ccc(Oc3ccc(F)cc3)cn2)[nH]1`, 255 to 256 °C; that for `CC(C)N1CC(C(=O)c2oc(Cc3ccc(F)cc3)cc2Cc2ccc(F)cc2)=C(O)C1=O`, 159 to 161 °C. In the case of `COCc1cc(=O)c(O)c(C(=O)c2ccc(Cc3ccc(F)cc3)o2)o1`, the melting point is 147 to 148 °C. With `Cc1cc(Cc2ccc(F)cc2)c(C(=O)C2=C(O)C(=O)N(C(C)C)C2)o1`, the melting point fell in the range of 125 to 127 °C. `Cc1nc(-c2oc3cccc(OCc4ccc(F)cc4)c3c(=O)c2O)n[nH]1` had a melting point of 289 to 292 °C. `CN1CC(c2nccc(OCc3ccc(F)cc3)n2)=C(O)C1=O` had a melting point of 227 to 230 °C. For `CN1CC(c2ncc(Oc3ccccc3)cn2)=C(O)C1=O` the value was 207 to 208 °C; for `Cn1cnc(-c2oc3cccc(OCc4ccc(F)cc4)c3c(=O)c2O)n1`, 264 to 266 °C. For `O=C(C1=C(O)C(=O)N(CCN2CCCCC2)C1)c1ccc(Cc2ccc(F)cc2)o1` the value was 228 to 232 °C (dec.); for `CN1CC(c2ccc(OCc3ccc(F)cc3)cn2)=C(O)C1=O`, 210 to 211 °C. For `CN1CC(c2ccc(Oc3ccccc3)cn2)=C(O)C1=O` the value was 200 to 202 °C; for `Cn1ncnc1-c1oc2c(Br)ccc(OCc3ccc(F)cc3)c2c(=O)c1O`, 220 to 223 °C; for `CCC(O)CN1CC(C(=O)c2ccc(Cc3ccc(F)cc3)o2)=C(O)C1=O` (centres unmarked), 132 to 133 °C. `CC(C)N1CC(c2ccc([S+]([O-])c3ccc(F)cc3)cn2)=C(O)C1=O` (centres unmarked): the melting point was 205 to 207 °C.

`Cn1ncnc1-c1oc2cccc(OCCc3ccc(F)cc3)c2c(=O)c1O` displayed a melting point of 215 to 217 °C. For `CN1CC(C(=O)c2oc(C3CCS(=O)(=O)CC3)cc2Cc2ccc(F)cc2)=C(O)C1=O` the value was 200 to 203 °C; for `CN1CC(C(=O)c2nc(Cc3ccc(F)cc3)co2)=C(O)C1=O`, 209 to 210 °C; for `Cn1ncnc1-c1oc2cccc(CCc3ccc(F)cc3)c2c(=O)c1O`, 192 to 193 °C.

Consider `O=C(C1=C(O)C(=O)N(Cc2ccccc2)C1)c1ccc(Cc2ccc(F)cc2)o1`, for which the melting point was 129 to 130 °C. The result for `CN1CC(c2nccc(CCc3ccccc3)n2)=C(O)C1=O` reads 118 to 119 °C; that for `CN1CC(C(=O)c2ccc(Cc3ccccc3)o2)=C(O)C1=O`, 116 to 118 °C; that for `CC(C)N1CC(C(=O)c2cncn2Cc2ccc(F)cc2)=C(O)C1=O`, 156 to 159 °C. `CC(C)N1CC(C(=O)c2occc2Cc2ccc(F)cc2)=C(O)C1=O` registered a melting point of 197 to 199 °C.

`Cn1ncnc1-c1oc2cc(C(N)=O)cc(OCc3ccc(F)cc3)c2c(=O)c1O` registered a melting point of 257 to 258 °C. For `CC(C)N1CC(c2ncc(CCc3ccc(F)cc3)s2)=C(O)C1=O` the value was 208 to 210 °C. For `C=CCN1CC(C(=O)c2ccc(Cc3ccc(F)cc3)o2)=C(O)C1=O` the value was 95 to 96.5 °C; for `CCNC(=O)c1cc(C(=O)C2=C(O)C(=O)N(C)C2)oc1Cc1ccc(F)cc1`, 169 to 170 °C; for `O=C(c1ccc(Cc2ccc(F)cc2)o1)c1oc(C(=O)N2CCCCC2)cc(=O)c1O`, 146 to 148 °C. The result for `O=c1c(O)c(-c2nc[nH]n2)oc2cccc(OCc3ccc(F)cc3)c12` reads 254 to 256 °C; that for `CC(C)N1CC(c2cc(CCc3ccccc3)ncn2)=C(O)C1=O`, 229 to 231 °C; that for `CC(O)CN1CC(C(=O)c2ccc(Cc3ccc(F)cc3)o2)=C(O)C1=O` (centres unmarked), 172 °C.

`Cn1c(C(=O)c2ccc(Cc3ccc(F)cc3)o2)c(O)c(=O)n1C` yielded a melting point of 110 to 111 °C. Turning to `CN1CC(c2ccc(Oc3ccc(F)cc3)cn2)=C(O)C1=O`, the melting point was in the range of 229 to 230 °C. In turn, `CN1CC(C(=O)c2cccn2Cc2ccc(F)cc2)=C(O)C1=O` registered a melting point of 150 to 151 °C. In turn, `CN1CC(C(=O)c2sccc2Cc2ccc(F)cc2)=C(O)C1=O` registered a melting point of 181 to 183 °C. For `N#Cc1cc(=O)c(O)c(C(=O)c2ccc(Cc3ccc(F)cc3)o2)o1` the value was 190 to 194 °C (dec.). For `CN1CC(C(=O)c2coc(Cc3ccc(F)cc3)c2)=C(O)C1=O` the value was 158 to 160 °C. For `O=C(NCc1ccc(F)cc1)c1oc2ccccc2c(=O)c1O` the value was 235 to 236 °C; for `CN1CC(C(=O)c2c[nH]cc2Cc2ccc(F)cc2)=C(O)C1=O`, 265 to 267 °C; for `O=C(c1ccc(Cc2ccc(F)cc2)o1)c1cc[nH]c(=O)c1O`, 229 to 231 °C. For the compound `CC(C)N1CC(c2ccc(Oc3ccc(F)cc3)cn2)=C(O)C1=O`, the melting point was 178 to 179 °C. Compound `CC(C)N1CC(C(=O)c2oc(C(C)(C)C)cc2Cc2ccc(F)cc2)=C(O)C1=O` had a melting point of 146 to 147 °C. The result for `CC(C)N1CC(C(=O)c2ccc(Cc3ccc(F)cc3C(N)=O)o2)=C(O)C1=O` reads 215 to 218 °C. The result for `COc1ccccc1Cc1ccc(C(=O)C2=C(O)C(=O)N(C(C)C)C2)o1` reads 123 to 124 °C.

`CN1CC(c2ncc(Oc3ccc(F)cc3)cn2)=C(O)C1=O` registered a melting point of 230 to 232 °C. `CC(C)N1CC(c2ccc(Oc3ccc(F)cc3)nn2)=C(O)C1=O` had a melting point of 204 to 206 °C.

Regarding `CN1CC(c2cnc(Oc3ccc(F)cc3)cn2)=C(O)C1=O`, the melting point is 237 to 238 °C. With `CCN1CC(C(=O)c2oc(C(C)(C)C)cc2Cc2ccc(F)cc2)=C(O)C1=O`, the melting point was 141 to 143 °C. Consider `CC(C)N1CC(c2ccc(Oc3ccccc3)nn2)=C(O)C1=O`, for which the melting point lay in the range of 203 to 205 °C. The result for `O=C(C1=C(O)C(=O)N(CC(O)CO)C1)c1occc1Cc1ccc(F)cc1` (centres unmarked) reads 208 to 210 °C. For `CN1CC(c2ncc(CCc3ccc(F)cc3)s2)=C(O)C1=O` the value was 214 to 216 °C; for `CN1CC(c2ccc(Oc3ccccc3)nn2)=C(O)C1=O`, 220 to 225 °C.
